Key:
[1] = test system: mTOR and pmTOR; assay: Immunofluorescence of mTOR and pmTOR in prostate cancer cell lines transfected with NS or miR-99b-5p mimic; assay type: cell-based, human; details: vs NS
Text: The human cell lines used in the study included: 22Rv1, LNCaP, PC-3, RC77 T/E and MDA PCa 2b (prostate cancer cell lines), MDA MB 231 and MCF-7 (breast cancer cell lines), HT-29 and SW620 (colon cancer cell lines), A549 and H1299 (lung cancer cell lines). RWPE-1, HMEC, FHC, and BEAS-2B were used as normal control cell lines for prostate, breast, colon, and lung, respectively. Note that 22Rv1 is a castration-resistant […] prostate cancer cell line, while LNCaP and PC-3 were derived from lymph node and bone metastasis of […] prostate cancer patients, respectively. RC77 T/E was derived from a primary prostate cancer patient, and MDA PCa 2b was derived from bone metastasis of an prostate cancer patient. The cell lines described were used as in vitro cell models to evaluate the functional roles of miR-99b-5p/MTOR pairing in the […] prostate cancer, African American prostate cancer and solid tumors in general. The cells were grown in specific cell culture media described as follows: 22Rv1, LNCaP, MCF-7 and H1299 were cultured in RPMI-1640 with 10% fetal bovine serum (FBS), PC-3, A549 and FHC were cultured in DMEM with 10% FBS, RC77 T/E was cultured in Keratinocyte SFM with human recombinant epidermal growth factor (EGF) and bovine pituitary extract (BPE), MDA PCa 2b were cultured in BRFF-HPC1 with 20% FBS, HT-29 was cultured in McCory's with 10% FBS, SW620 and MDA MB 231 were cultured in L-15 with 10% FBS, HMEC was cultured in mammary epithelial cell basal medium with supplements, and BEAS-2B was cultured in BEBM base medium with BEBM supplement kit. Cells were maintained at 37° C. in a 5% CO2 incubator.
The 22Rv1, LNCaP, PC-3, MDA PCa 2b, MCF7, H1299, A549, HT-29, SW620, MDA MB-231, HMEC and BEAS-2B cells were seeded at a density of 3×10^5 cells/well in 6-well plates. RC77 T/E cells were seeded at a density of 5×10^5 cells/well in 6-well plates. The cells were grown for 24 h and then transfected with nonsense/scrambled RNA (NS) and miR-99b-5p mimic (Ambion) using DharmaFECT4 transfection reagent (Dharmacon). After 24 h, fresh media were applied to replace the transfection reagent-containing media, then the cells were incubated for an additional 24 h.
In this process, 4×10^4 cells were seeded on cover slip and allowed to adhere for 24 h in 5% CO2 incubator at 37° C. All the cells were subjected to immunofluorescence assays 48 h following transfection. Briefly, cells were washed with 1×PBS, fixed in 4% paraformaldehyde, and permeabilized with 0.1% Triton X-100. Cells were then blocked for 1 h with 2% BSA in 1×PBS. […] All labeled and/or prepared cells mounted on glass slides and were visualized by fluorescence microscopy (Olympus). […]

[2] = test system: cancer cell lines (HT-29, SW620, MDA MB 231, MCF-7, A549, and H1299); assay: TUNEL assay; assay type: cell-based, human; details: mimic vs NS transfected cancer cells; 48 h
Experimental: TUNEL assay was carried out according to the manufacturer's protocol (Click-iT™ Plus In-situ Apoptosis Detection with Alexa Fluor Dyes, Thermo Fisher Scientific). Precisely, 4×10^4 cells (HT-29, SW620, MDA MB 231, MCF-7, A549, and H1299) were seeded on coverslips and allowed to adhere for 24 h in 5% CO2 incubator at 37° C. These cells were fixed in 4% paraformaldehyde in 1×PBS after exposure of miR-99b-5p mimic or negative control mimic for 48 h, then washed with PBS three times followed by the incubation with 0.25% Triton X-100 in 1×PBS and ultimately the cells were incubated with differential steps of TUNEL reaction mixture as per the manufacturer's protocol. Lastly, the processed cells were counterstained with DAPI for 5 min, at room temperature in the dark. All labeled and/or prepared cells were mounted on glass slides and were visualized by Olympus BX3 fluorescence microscope (Olympus). Cell images were captured from 3-4 random areas at 10× magnification by using CellSens V1.18 software (Olympus).

[3] = test system: HT-29, SW620, MDA MB 231, MCF7, A549, and H1299; assay: Caspase 3/7 activity-based apoptosis assay, colon, breast and lung cancer cell lines; design: species or system human
Experimental: HT-29, SW620, MDA MB 231, MCF7, A549, and H1299 were seeded at a density of 3×10^4 cells/well in 96-well plates. The cells were grown overnight and then followed by transfections. After 24 h, fresh media were applied to replace the transfection reagent-containing media with […] of docetaxel or vehicle, then the cells were incubated for an additional 24 h. The Apo-ONE Caspase-3/7 Assay Kit (Promega Corporation) was used to measure apoptosis according to the protocol described by the manufacturer. Then, 100 μL of homogeneous Caspase-3/7 reagent was added to each well and the plate incubated at room temperature for 30 min to 2 h. Fluorescence was detected for measuring (at wavelengths of 499/521 nm excitation/emission) the apoptosis state (Caspase 3/7 activity) using Biotek Synergy HT Microplate Reader (BioTek).

[4] = 22Rv1, LNCaP, PC-3, RC77 T/E, MDA PCa 2b, 48 h following transfection
[5] = all European American and African American prostate cancer cell lines

miR-99b-5p mimic: miRNA mimic of miR-99b-5p (SEQ ID NO: 2, CACCCGUAGAACCGACCUUGCG), purchased from Ambion (listed as RNA, chemistry not given here; listed as Homo sapiens)
pmTOR signals (immunofluorescence) [1, 4]: generalized reduction | total mTOR signals (immunofluorescence) [1, 4]: generalized reduction | cytoplasmic pmTOR signals (immunofluorescence quantification) [1, 5]: increased | nuclear pmTOR signals (immunofluorescence quantification) [1, 5]: reduced significantly | DNA breakages (TUNEL red fluorescent signals in nuclei) [2]: enhanced | cell apoptosis (caspase 3/7 activity) in the presence of docetaxel ([3]; HT-29, SW620, MCF-7, A549, H1299, 11 mM of docetaxel, 24 h): moderate to significant cell apoptosis | apoptosis (caspase 3/7 activity), single agent ([3]; colon, breast, lung cancer cells, without docetaxel (vehicle)): not sufficient to initiate significant apoptosis

Reference: patent US20240287614A1, “RECIPROCAL MICRORNA-MRNA PAIRINGS AS BIOMARKERS AND THERAPEUTIC TARGETS IN CANCER” (UNIVERSITY OF MARYLAND, EASTERN SHORE, priority 2023, published 2024)
